Results: patent US20260217701A1, “SELECTIVE BET INHIBITORS AND USES THEREOF” (Tay Therapeutics Limited, priority 2022, published 2026)
Marks after values point to notes of the source that are not given here.

Test system: experimental autoimmune encephalomyelitis
Experiment: Experimental autoimmune encephalomyelitis (EAE) model: EAE scores, onset, incidence
Format: in vivo, C57BI/6 mice
Experimental: Experimental Method H: EAE in animals treated with a BET inhibitor and vehicle. Animals were assigned to the groups outlined in Table 38.
Compound A may be formulated as illustrated in Experimental Method A (see Table 2E.). A 40 mg/mL stock solution of Compound A in DMSO was prepared and aliquots stored at −20° C. On each day of preparation an e.g., 0.75 mL aliquot of thawed stock was diluted with an equal volume of DMSO. The remaining vehicle components were added to provide the highest dose and then diluted with vehicle to provide lower doses. A 30 mg/mL stock solution of FTY720 in ethanol was prepared and stored at −20° C. Daily, the stock solution was diluted with room temperature water to a final dosing concentration of 0.6 mg/mL. Formulated Compound A, FTY720 and vehicle were each at room temperature for dosing.
Female C57BI/6 mice (9 weeks old) were acclimated for seven days prior to study initiation. On Day-1, animals were assigned to groups in a balanced manner to achieve similar average weights across the different groups. Chronic EAE was induced in female C57BI/6 mice following immunization with an emulsion of MOG35-55/CFA on Day 0, followed by an injection of pertussis toxin two hours after the initial immunization. On Day 1, a second injection of pertussis toxin was administered 24 hours after the initial immunization. Mice were injected subcutaneously at two sites on the back with the MOG35-55/CFA emulsion (Hooke Kit™ MOG35-55/CFA Emulsion PTX). The first injection site was located approximately 1 cm caudal of the neckline (upper back), and the second injection site was approximately 2 cm cranial of the base of the tail (lower back). The injection volume was 0.1 mL for each injection. The pertussis toxin was administered at the described times through intraperitoneal injection at a concentration of 85 ng/dose for both injections.
Body weight was measured three times a week (Monday, Wednesday, and Friday) starting on Day-1. Animals were scored daily for EAE starting on Day 7. In-between scores were assigned when the clinical signs fell between two below defined scores.

[1] = all animals receiving Compound A

With `Cn1cc(-c2ccccc2)c(-c2cn(C)c(=O)c3[nH]c(-c4cnn(C(F)(F)F)c4)cc23)cc1=O` [Compound A, 6-methyl-4-(1-methyl-2-oxo-5-phenyl-1,2-dihydropyridin-4-yl)-2-(1-(trifluoromethyl)-1H-pyrazol-4-yl)-1,6-dihydro-7H-pyrrolo[2,3-c]pyridin-7-one] the EAE incidence rate (1 mg/kg (lowest dose)) was 100%, the “Mean maximum EAE scores relative to vehicle” value (1 mg/kg, 3 mg/kg and 10 mg/kg) was “significantly reduced mean maximum scores” and the EAE incidence rate (3 mg/kg) was 91.7%. For the same molecule, the EAE incidence rate (10 mg/kg) was 83.3%, the “Incidence of EAE (%)” value (Compound A 1 mg/kg (Group 2)) was 100% and the “Mean Day of Onset (SEM)” value (Compound A 1 mg/kg (Group 2)) was 14.5 (0.9) Day. For the same molecule, the “Mean End Score (SEM)” value (Compound A 1 mg/kg (Group 2)) was 1.05 (0.35)*, the “Mean Maximum Score (SEM)” value (Compound A 1 mg/kg (Group 2)) was 2.18 (0.25)* and the “Median Day of Onset” value (Compound A 1 mg/kg (Group 2)) was 13.0 days. The “Mean EAE score” value (Compound A 1 mg/kg (Group 2), Day 7) was 0.00, the “Mean EAE score” value (Compound A 1 mg/kg (Group 2), Day 8) was 0.00 and the “Mean EAE score” value (Compound A 1 mg/kg (Group 2), Day 9) was 0.00. The “Mean EAE score” value (Compound A 1 mg/kg (Group 2), Day 10) was 0.00, the “Mean EAE score” value (Compound A 1 mg/kg (Group 2), Day 11) was 0.05 and the “Mean EAE score” value (Compound A 1 mg/kg (Group 2), Day 12) was 0.18. The “Mean EAE score” value (Compound A 1 mg/kg (Group 2), Day 13) was 0.55, the “Mean EAE score” value (Compound A 1 mg/kg (Group 2), Day 14) was 0.95 and the “Mean EAE score” value (Compound A 1 mg/kg (Group 2), Day 15) was 1.27. The “Mean EAE score” value (Compound A 1 mg/kg (Group 2), Day 16) was 1.45, the “Mean EAE score” value (Compound A 1 mg/kg (Group 2), Day 17) was 1.73 and the “Mean EAE score” value (Compound A 1 mg/kg (Group 2), Day 18) was 1.68. For the same molecule, the “Mean EAE score” value (Compound A 1 mg/kg (Group 2), Day 19) was 1.68, the “Mean EAE score” value (Compound A 1 mg/kg (Group 2), Day 20) was 1.55 and the “Mean EAE score” value (Compound A 1 mg/kg (Group 2), Day 21) was 1.64. The “Mean EAE score” value (Compound A 1 mg/kg (Group 2), Day 22) was 1.32, the “Mean EAE score” value (Compound A 1 mg/kg (Group 2), Day 23) was 1.23 and the “Mean EAE score” value (Compound A 1 mg/kg (Group 2), Day 24) was 1.23. For the same molecule, the “Mean EAE score” value (Compound A 1 mg/kg (Group 2), Day 25) was 1.09, the “Mean EAE score” value (Compound A 1 mg/kg (Group 2), Day 26) was 1.14 and the “Mean EAE score” value (Compound A 1 mg/kg (Group 2), Day 27) was 1.09. For the same molecule, the “Mean EAE score” value (Compound A 1 mg/kg (Group 2), Day 28) was 1.05, the “Incidence of EAE (%)” value (Compound A 3 mg/kg (Group 3)) was 91.7% and the “Mean Day of Onset (SEM)” value (Compound A 3 mg/kg (Group 3)) was 14.2 (0.4) Day. For the same molecule, the “Mean End Score (SEM)” value (Compound A 3 mg/kg (Group 3)) was 0.73 (0.26)**, the “Mean Maximum Score (SEM)” value (Compound A 3 mg/kg (Group 3)) was 1.77 (0.23)*** and the “Median Day of Onset” value (Compound A 3 mg/kg (Group 3)) was 14.0 days. For the same molecule, the “Mean EAE score” value (Compound A 3 mg/kg (Group 3), Day 7) was 0.00, the “Mean EAE score” value (Compound A 3 mg/kg (Group 3), Day 8) was 0.00 and the “Mean EAE score” value (Compound A 3 mg/kg (Group 3), Day 9) was 0.00. For the same molecule, the “Mean EAE score” value (Compound A 3 mg/kg (Group 3), Day 10) was 0.00, the “Mean EAE score” value (Compound A 3 mg/kg (Group 3), Day 11) was 0.00 and the “Mean EAE score” value (Compound A 3 mg/kg (Group 3), Day 12) was 0.00. For the same molecule, the “Mean EAE score” value (Compound A 3 mg/kg (Group 3), Day 13) was 0.29, the “Mean EAE score” value (Compound A 3 mg/kg (Group 3), Day 14) was 0.63 and the “Mean EAE score” value (Compound A 3 mg/kg (Group 3), Day 15) was 0.88. For the same molecule, the “Mean EAE score” value (Compound A 3 mg/kg (Group 3), Day 16) was 1.29, the “Mean EAE score” value (Compound A 3 mg/kg (Group 3), Day 17) was 1.67 and the “Mean EAE score” value (Compound A 3 mg/kg (Group 3), Day 18) was 1.54. For the same molecule, the “Mean EAE score” value (Compound A 3 mg/kg (Group 3), Day 19) was 1.18, the “Mean EAE score” value (Compound A 3 mg/kg (Group 3), Day 20) was 1.23 and the “Mean EAE score” value (Compound A 3 mg/kg (Group 3), Day 21) was 1.18. For the same molecule, the “Mean EAE score” value (Compound A 3 mg/kg (Group 3), Day 22) was 0.95, the “Mean EAE score” value (Compound A 3 mg/kg (Group 3), Day 23) was 0.91 and the “Mean EAE score” value (Compound A 3 mg/kg (Group 3), Day 24) was 0.91. The “Mean EAE score” value (Compound A 3 mg/kg (Group 3), Day 25) was 0.95, the “Mean EAE score” value (Compound A 3 mg/kg (Group 3), Day 26) was 0.95 and the “Mean EAE score” value (Compound A 3 mg/kg (Group 3), Day 27) was 0.95. The “Mean EAE score” value (Compound A 3 mg/kg (Group 3), Day 28) was 0.73, the “Incidence of EAE (%)” value (Compound A 10 mg/kg (Group 4)) was 83.3% and the “Mean Day of Onset (SEM)” value (Compound A 10 mg/kg (Group 4)) was 13.4 (0.6) Day. The “Mean End Score (SEM)” value (Compound A 10 mg/kg (Group 4)) was 0.29 (0.13)***, the “Mean Maximum Score (SEM)” value (Compound A 10 mg/kg (Group 4)) was 1.67 (0.28)*** and the “Median Day of Onset” value (Compound A 10 mg/kg (Group 4)) was 13.0 days. The “Mean EAE score” value (Compound A 10 mg/kg (Group 4), Day 7) was 0.00, the “Mean EAE score” value (Compound A 10 mg/kg (Group 4), Day 8) was 0.00 and the “Mean EAE score” value (Compound A 10 mg/kg (Group 4), Day 9) was 0.00. The “Mean EAE score” value (Compound A 10 mg/kg (Group 4), Day 10) was 0.00, the “Mean EAE score” value (Compound A 10 mg/kg (Group 4), Day 11) was 0.04 and the “Mean EAE score” value (Compound A 10 mg/kg (Group 4), Day 12) was 0.21. The “Mean EAE score” value (Compound A 10 mg/kg (Group 4), Day 13) was 0.83, the “Mean EAE score” value (Compound A 10 mg/kg (Group 4), Day 14) was 1.04 and the “Mean EAE score” value (Compound A 10 mg/kg (Group 4), Day 15) was 1.33. For the same molecule, the “Mean EAE score” value (Compound A 10 mg/kg (Group 4), Day 16) was 1.46, the “Mean EAE score” value (Compound A 10 mg/kg (Group 4), Day 17) was 1.46 and the “Mean EAE score” value (Compound A 10 mg/kg (Group 4), Day 18) was 1.54. For the same molecule, the “Mean EAE score” value (Compound A 10 mg/kg (Group 4), Day 19) was 1.21, the “Mean EAE score” value (Compound A 10 mg/kg (Group 4), Day 20) was 1.13 and the “Mean EAE score” value (Compound A 10 mg/kg (Group 4), Day 21) was 1.17. For the same molecule, the “Mean EAE score” value (Compound A 10 mg/kg (Group 4), Day 22) was 0.75, the “Mean EAE score” value (Compound A 10 mg/kg (Group 4), Day 23) was 0.71 and the “Mean EAE score” value (Compound A 10 mg/kg (Group 4), Day 24) was 0.63. The “Mean EAE score” value (Compound A 10 mg/kg (Group 4), Day 25) was 0.46, the “Mean EAE score” value (Compound A 10 mg/kg (Group 4), Day 26) was 0.50 and the “Mean EAE score” value (Compound A 10 mg/kg (Group 4), Day 27) was 0.46. For the same molecule, the “Mean EAE score” value (Compound A 10 mg/kg (Group 4), Day 28) was 0.29, the “Mean EAE score compared to positive control FTY720” value (Day 28, 10 mg/kg) was “comparable mean EAE score” and the “Day on which EAE scores peaked” value [1] was about 17 days. The “Mean end EAE scores relative to vehicle” value [1] was “significantly reduced mean end scores” and the “Mean day of onset of EAE compared with vehicle” value (all doses) was “similar”.
